The target of the first assay is T1, pY641-STAT6 in PBMC (Homo sapiens, UniProt P42226).
T1 construct: Cryopreserved Peripheral Blood Mononuclear Cells (PBMC) are from AllCells; host or cells: cryopreserved PBMC
T1 sequence (P42226 1-847): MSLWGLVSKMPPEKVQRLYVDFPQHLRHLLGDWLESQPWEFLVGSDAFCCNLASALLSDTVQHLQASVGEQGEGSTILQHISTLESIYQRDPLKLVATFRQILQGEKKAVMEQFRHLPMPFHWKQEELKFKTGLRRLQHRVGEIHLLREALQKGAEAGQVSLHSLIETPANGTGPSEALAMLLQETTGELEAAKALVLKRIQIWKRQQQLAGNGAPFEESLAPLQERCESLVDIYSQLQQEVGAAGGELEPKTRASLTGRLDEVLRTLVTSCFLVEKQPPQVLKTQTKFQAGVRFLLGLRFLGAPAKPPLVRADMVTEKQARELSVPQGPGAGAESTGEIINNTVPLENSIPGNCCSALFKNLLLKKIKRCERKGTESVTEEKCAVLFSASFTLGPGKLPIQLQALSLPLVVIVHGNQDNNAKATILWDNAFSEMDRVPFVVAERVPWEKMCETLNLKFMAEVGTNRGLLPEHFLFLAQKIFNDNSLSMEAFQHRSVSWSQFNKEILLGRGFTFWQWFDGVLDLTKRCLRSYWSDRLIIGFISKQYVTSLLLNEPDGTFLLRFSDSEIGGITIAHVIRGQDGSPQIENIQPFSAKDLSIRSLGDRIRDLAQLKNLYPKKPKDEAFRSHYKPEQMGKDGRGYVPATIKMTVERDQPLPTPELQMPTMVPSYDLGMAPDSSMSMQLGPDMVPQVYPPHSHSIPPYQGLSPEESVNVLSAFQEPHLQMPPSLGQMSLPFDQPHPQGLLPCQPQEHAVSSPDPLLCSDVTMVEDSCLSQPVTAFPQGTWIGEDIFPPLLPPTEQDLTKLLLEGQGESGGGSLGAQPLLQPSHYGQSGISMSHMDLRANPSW
The assay can be described thus: MSD-pSTAT-PBMC Assay (pSTAT6, IL-4 stimulated). The assay is classed as cell-based. The settings on record: PBMC, compound 3 hrs, then 1 ng/mL IL-4 for 10 min; Table 115; read-out: STAT6. The essentials: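 PBMC (human, cryopreserved, overnight recovery) + cpd 3 hrs → IL-6 10 ng/mL (STAT3) or IL-4 1 ng/mL (STAT6) ×10 min → lysis with protease/phosphatase inhibitors → MSD capture/phospho detection. IC50, variable slope, DMSO-normalized.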
Turning to `CCCOC(=O)[C@H](C)NP(=O)(Cc1ccc2sc(C(=O)N[C@H]3CCCC[C@H]4CC[C@@H](C(=O)N5C[C@@H](C#N)[C@H](c6ccccc6)C5)N4C3=O)cc2c1)Oc1ccccc1` (some centres unmarked) [Compound 444], the IC50 was in the range of 100 to 1000 nM. In the case of `CCCOC(=O)[C@H](C)NP(=O)(Oc1ccccc1)[C@@H](F)c1ccc2sc(C(=O)N[C@H]3CCCC[C@H]4CC[C@@H](C(=O)N5C[C@H](c6cccc(Cl)c6)[C@@H](C#N)C56CC6)N4C3=O)cc2c1` (some centres unmarked) [Compound 345], the IC50 was under 100 nM. Take `COCCOC(=O)[C@H](C)NP(=O)(OCC(F)(F)F)[C@@H](F)c1ccc2sc(C(=O)N[C@H]3CCCC[C@H]4CC[C@@H](C(=O)N5CC(c6ccccc6)C(C#N)C56CC6)N4C3=O)cc2c1` (stereo in doubt) [Compound 377, 2-methoxyethyl (((R)-(2-(((3S,6S,10aS)-3-((6S,7R)-7-cyano-6-phenyl-4-azaspiro[2.4]heptane-4-carbonyl)-5-oxodecahydropyrrolo [1,2-a]azocin-6-yl)carbamoyl)benzo [b]thiophen-5-yl)fluoromethyl)(2,2,2-trifluoroethoxy)phosphoryl)-L-alaninate]: the IC50 is under 100 nM.

Consider “(4-methyl- 112,212,4- triazolidin-3- yl)methyl (((1R)- fluoro(2- (((3S,6S,9aS)-5- oxo-3-((R)-6- (pyridin-3-yl)-4- azaspiro[2.4]heptane- 4- carbonyl)octahydro- 1H-pyrrolo[1,2- a]azepin-6- yl)carbamoyl)-2,3- dihydrobenzo[b] thiophen-5- yl)methyl)(phenoxy) phosphoryl)-L- alaninate [Compound 373]”, for which the IC50 was over 3000 nM.

The same assay, now with this note: STAT6, PBMC, compound 3 hrs, then 1 ng/mL IL-4 for 10 min; Table 115.
`CCCOC(=O)[C@H](C)NP(=O)(Oc1ccccc1)[C@@H](F)c1ccc2sc(C(=O)N[C@H]3CCCC[C@H]4CC[C@@H](C(=O)N5C(=O)N(c6cnccc6C)C(=O)C56CC6)N4C3=O)cc2c1` (stereo partly drawn) [Compound 334, propyl (((R)-fluoro(2-(((3S,6S,10aS)-3-(6-(4-methylpyridin-3-yl)-5,7-dioxo-4,6-diazaspiro[2.4]heptane-4-carbonyl)-5-oxodecahydropyrrolo [1,2-a]azocin-6-yl)carbamoyl)benzo [b]thiophen-5-yl)methyl)(phenoxy)phosphoryl)-L-alaninate]: the IC50 is under 100 nM. The compound `CCCOC(=O)[C@H](C)NP(=O)(Cc1ccc2ccc(C(=O)N[C@H]3CCCC[C@H]4CC[C@@H](C(=O)N5CCC(c6cccnc6)C5)N4C3=O)cc2c1)Oc1ccccc1` (stereo partly drawn) [Compound 305, propyl (((7-(((3S,6S,10aS)-5-oxo-3-(3-(pyridin-3-yl)pyrrolidine-1-carbonyl)decahydropyrrolo[1,2-a]azocin-6-yl)carbamoyl)naphthalen-2-yl)methyl)(phenoxy)phosphoryl)-L-alaninate] showed an IC50 of 100 to 1000 nM. Turning to `CCCOC(=O)[C@H](C)NP(=O)(Oc1ccccc1)C(F)c1ccc2sc(C(=O)N[C@H]3CCCC[C@H]4CC[C@@H](C(=O)N5C(=O)N(c6cccc7c6OC(F)(F)O7)C(=O)C56CC6)N4C3=O)cc2c1` (stereo partly drawn) [Compound 982, propyl (((2-(((3S,6S,10aS)-3-(6-(2,2-difluorobenzo[d][1, 3]dioxol-4-yl)-5,7-dioxo-4,6-diazaspiro [2.4]heptane-4-carbonyl)-5-oxodecahydropyrrolo [1,2-a]azocin-6-yl)carbamoyl)benzo [b]thiophen-5-yl)fluoromethyl) (phenoxy)phosphoryl)-L-alaninate], the IC50 is over 3000 nM. Compound `CCCOC(=O)[C@H](C)NP(=O)(Cc1ccc2sc(C(=O)N[C@H]3CCCC[C@H]4CC[C@@H](C(=O)N5C[C@@H](c6cccnc6)CC56CC6)N4C3=O)cc2c1)Oc1ccccc1` (stereo partly drawn) [Compound 476, propyl (((2-(((3S,6S,10aS)-5-oxo-3-((R)-6-(pyridin-3-yl)-4-azaspiro[2.4]heptane-4-carbonyl)decahydropyrrolo[1,2-a]azocin-6-yl)carbamoyl)benzo [b]thiophen-5-yl)methyl)(phenoxy)phosphoryl)-L-alaninate] showed an IC50 of under 100 nM. Still for that read-out and setting: the same measure for `CCCOC(=O)[C@H](C)NP(=O)(Oc1ccccc1)[C@@H](F)c1ccc2sc(C(=O)N[C@H]3CCCC[C@H]4CC[C@@H](C(=O)N5C[C@H](c6cccc(OC)c6)[C@@H](C#N)C56CC6)N4C3=O)cc2c1` (single isomer, unassigned) [Compound 335]: under 100 nM; for `CCCOC(=O)[C@H](C)NP(=O)(Oc1ccccc1)C(F)c1ccc2sc(C(=O)N[C@H]3CCCC[C@H]4CC[C@@H](C(=O)N5CCC(O)(c6ccn(C)c(=O)c6)C5)N4C3=O)cc2c1` (stereo partly drawn) [Compound 466, propyl ((fluoro(2-(((3S,6S,10aS)-3-(3-hydroxy-3-(1-methyl-2-oxo-1,2-dihydropyridin-4-yl)pyrrolidine-1-carbonyl)-5-oxodecahydropyrrolo [1,2-a]azocin-6-yl)carbamoyl)benzo [b]thiophen-5-yl)methyl)(phenoxy)phosphoryl)-L-alaninate]: over 3000 nM; for `CCCOC(=O)[C@H](C)NP(=O)(Oc1ccccc1)C(F)c1ccc2sc(C(=O)N[C@H]3CCCC[C@H]4CC[C@@H](C(=O)N5C[C@@H](C#N)[C@H](c6cccn(C)c6=O)C5)N4C3=O)cc2c1` (relative stereo) [Compound 299, propyl (((2-(((3S,6S,10aS)-3-(rel-(trans)-3-cyano-4-(1-methyl-2-oxo-1,2-dihydropyridin-3-yl)pyrrolidine-1-carbonyl)-5-oxodecahydropyrrolo [1,2-a]azocin-6-yl)carbamoyl)benzo [b]thiophen-5-yl)fluoromethyl) (phenoxy)phosphoryl)-L-alaninate]: 100 to 1000 nM. Same read-out and setting: under `CCCOC(=O)[C@H](C)NP(=O)(Oc1ccccc1)C(F)c1ccc2sc(C(=O)N[C@H]3CCCC[C@H]4CC[C@@H](C(=O)N5C[C@@H](C#N)[C@H](c6ccn(C)c(=O)c6)C5)N4C3=O)cc2c1` (single isomer, unassigned) [Compound 319] stands 1000 to 3000 nM; under `CCCOC(=O)[C@@H]1CCN1P(=O)(Oc1ccccc1)[C@H](F)c1ccc2sc(C(=O)N[C@H]3CCC[C@H]4CC[C@@H](C(=O)N5C[C@H](c6ccccc6)[C@@H](C#N)C56CC6)N4C3=O)cc2c1` (stereo partly drawn) [Compound 488, propyl (2S)-1-(((S)-(2-(((3S,6S,9aS)-3-((6S,7R)-7-cyano-6-phenyl-4-azaspiro[2.4]heptane-4-carbonyl)-5-oxooctahydro-1H-pyrrolo[1,2-a]azepin-6-yl)carbamoyl)benzo [b]thiophen-5-yl)fluoromethyl) (phenoxy)phosphoryl) azetidine-2-carboxylate], 1000 to 3000 nM. `C[C@H](NP(=O)(Oc1ccccc1)[C@@H](F)c1ccc2sc(C(=O)N[C@H]3CCCC[C@H]4CC[C@@H](C(=O)N5C[C@@H](c6cccnc6)CC56CC6)N4C3=O)cc2c1)C(=O)OC1CC1` (stereo partly drawn) [Compound 418, cyclopropyl (((R)-fluoro(2-(((3S,6S,10aS)-5-oxo-3-((R)-6-(pyridin-3-yl)-4-azaspiro[2.4]heptane-4-carbonyl)decahydropyrrolo[1,2-a]azocin-6-yl)carbamoyl)benzo [b]thiophen-5-yl)methyl)(phenoxy)phosphoryl)-L-alaninate] had an IC50 of under 100 nM. For `CCCOC(=O)[C@H](C)NP(=O)(Oc1ccccc1)[C@H](F)c1ccc2sc(C(=O)N[C@H]3C[C@H](C)C[C@H]4CC[C@@H](C(=O)N5C[C@H](c6ccccc6)[C@@H](C#N)C56CC6)N4C3=O)cc2c1` (stereo partly drawn) [Compound 352, propyl (((S)-(2-(((3S,6S,8S,9aR)-3-((6S,7R)-7-cyano-6-phenyl-4-azaspiro[2.4]heptane-4-carbonyl)-8-methyl-5-oxooctahydro-1H-pyrrolo[1,2-a]azepin-6-yl)carbamoyl)benzo [b]thiophen-5-yl)fluoromethyl) (phenoxy)phosphoryl)-L-alaninate], the IC50 was under 100 nM. On to `CCCOC(=O)[C@H](C)NP(=O)(Oc1ccccc1)C(F)c1ccc2sc(C(=O)N[C@H]3CCCC[C@H]4CC[C@@H](C(=O)N5CCC(c6cnn(C)c(=O)c6)C5)N4C3=O)cc2c1` (stereo partly drawn) [Compound 465, propyl ((fluoro(2-(((3S,6S,10aS)-3-(3-(1-methyl-6-oxo-1,6-dihydropyridazin-4-yl)pyrrolidine-1-carbonyl)-5-oxodecahydropyrrolo [1,2-a]azocin-6-yl)carbamoyl)benzo [b]thiophen-5-yl)methyl)(phenoxy)phosphoryl)-L-alaninate], for which the IC50 was over 3000 nM.

The same assay, now with this note: read-out: STAT6; PBMC, compound 3 hrs, then 1 ng/mL IL-4 for 10 min; Table 115.
In the case of `CCCOC(=O)[C@H](C)NP(=O)(Oc1ccccc1)[C@@H](F)c1ccc2sc(C(=O)N[C@H]3CCCC[C@H]4CC[C@@H](C(=O)N5C[C@H](c6cccc(OC)c6)[C@@H](C#N)C56CC6)N4C3=O)cc2c1` (single isomer, unassigned) [Compound 336], the IC50 is under 100 nM.

Source of the values: US20250215029A1 (Recludix Pharma, Inc., priority 2022, published 2025).
